Assay results from patent US20100286424A1 (priority 2007, published 2010).

Tests used:
mouse = settings: in vivo, po; cited from earlier work
cell growth = assay type: cell-based

Row | Compound | LD50 (mouse) | IC50 (cell growth)
1 | C[As+](C)(C)CC(=O)[O-] [AB, arsenobetaine] | 10,000 mg/kg | –
2 | Arsenic acid | – | 100 µM
3 | Arsenious acid | – | 10 µM
